# Results from article PMC5513037, “Examining the influence of specificity ligands and ATP-competitive ligands on the overall effectiveness of bivalent kinase inhibitors” (Proteome Science, 2017).
# Tests used:
# Assay in all cases: KAM-matrix competition in K562 lysate;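 on 0.001 uM KAM: median log10 fold change of treatment over DMSO control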;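 on 0.01 uM KAM: median log10 fold change of treatment over DMSO control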;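 on 0.1 uM KAM: median log10 fold change of treatment over DMSO control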;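 on 1 uM KAM: median log10 fold change of treatment over DMSO control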;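 on 10 uM KAM: median log10 fold change of treatment over DMSO control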
# Type in all cases: binding
# [1] = molecular target: T1, MAP3K5 (Homo sapiens, UniProt Q99683)
# T1 construct: endogenous in cells; host or cells: K562 cell lysate
# T1 sequence (Q99683 1-1374): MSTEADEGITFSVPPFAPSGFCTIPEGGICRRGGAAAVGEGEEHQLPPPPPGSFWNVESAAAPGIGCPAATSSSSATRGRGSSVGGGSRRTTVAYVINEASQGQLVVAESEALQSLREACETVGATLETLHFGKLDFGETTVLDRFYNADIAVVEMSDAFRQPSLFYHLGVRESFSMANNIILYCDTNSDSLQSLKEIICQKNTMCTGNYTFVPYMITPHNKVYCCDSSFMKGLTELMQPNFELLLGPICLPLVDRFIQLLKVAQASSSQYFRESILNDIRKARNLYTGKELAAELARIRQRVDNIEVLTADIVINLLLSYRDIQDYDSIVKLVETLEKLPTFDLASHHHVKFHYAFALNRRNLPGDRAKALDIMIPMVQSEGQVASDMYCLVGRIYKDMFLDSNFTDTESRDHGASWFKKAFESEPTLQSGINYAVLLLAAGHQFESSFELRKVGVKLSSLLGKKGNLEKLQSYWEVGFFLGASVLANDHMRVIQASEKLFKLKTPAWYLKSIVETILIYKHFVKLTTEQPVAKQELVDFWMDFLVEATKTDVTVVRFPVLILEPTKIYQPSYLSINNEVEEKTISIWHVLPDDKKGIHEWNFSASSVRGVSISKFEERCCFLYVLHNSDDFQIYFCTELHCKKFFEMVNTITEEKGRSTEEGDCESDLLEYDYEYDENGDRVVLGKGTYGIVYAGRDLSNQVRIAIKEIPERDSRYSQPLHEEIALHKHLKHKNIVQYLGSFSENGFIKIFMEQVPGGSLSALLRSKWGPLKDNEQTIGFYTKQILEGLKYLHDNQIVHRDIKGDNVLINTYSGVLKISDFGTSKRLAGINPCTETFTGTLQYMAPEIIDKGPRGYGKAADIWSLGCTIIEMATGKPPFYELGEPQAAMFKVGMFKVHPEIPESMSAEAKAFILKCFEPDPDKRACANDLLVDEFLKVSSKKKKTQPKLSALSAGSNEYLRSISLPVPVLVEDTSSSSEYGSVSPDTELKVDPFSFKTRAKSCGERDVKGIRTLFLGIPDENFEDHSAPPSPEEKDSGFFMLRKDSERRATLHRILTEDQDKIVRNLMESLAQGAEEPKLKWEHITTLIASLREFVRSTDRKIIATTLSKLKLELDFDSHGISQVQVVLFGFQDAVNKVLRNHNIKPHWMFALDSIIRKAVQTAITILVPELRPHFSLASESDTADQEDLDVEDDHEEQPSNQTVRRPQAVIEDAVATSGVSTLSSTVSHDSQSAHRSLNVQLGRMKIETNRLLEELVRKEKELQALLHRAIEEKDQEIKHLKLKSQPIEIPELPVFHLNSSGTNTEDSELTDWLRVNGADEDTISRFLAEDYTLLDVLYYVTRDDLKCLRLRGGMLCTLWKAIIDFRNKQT
# Method: (§1) Supplement 12953_2017_125_MOESM1_ESM.zip/MS_Supp Info.xlsx, sheet "KAM" | column: 10 uM KAM; 1 uM KAM; 0.1 uM KAM; 0.01 uM KAM; 0.001 uM KAM; RB50
# [2] = molecular target: T2, RET (Homo sapiens, UniProt P07949)
# T2 construct: endogenous in cells; host or cells: K562
# T2 sequence (P07949 29-1114): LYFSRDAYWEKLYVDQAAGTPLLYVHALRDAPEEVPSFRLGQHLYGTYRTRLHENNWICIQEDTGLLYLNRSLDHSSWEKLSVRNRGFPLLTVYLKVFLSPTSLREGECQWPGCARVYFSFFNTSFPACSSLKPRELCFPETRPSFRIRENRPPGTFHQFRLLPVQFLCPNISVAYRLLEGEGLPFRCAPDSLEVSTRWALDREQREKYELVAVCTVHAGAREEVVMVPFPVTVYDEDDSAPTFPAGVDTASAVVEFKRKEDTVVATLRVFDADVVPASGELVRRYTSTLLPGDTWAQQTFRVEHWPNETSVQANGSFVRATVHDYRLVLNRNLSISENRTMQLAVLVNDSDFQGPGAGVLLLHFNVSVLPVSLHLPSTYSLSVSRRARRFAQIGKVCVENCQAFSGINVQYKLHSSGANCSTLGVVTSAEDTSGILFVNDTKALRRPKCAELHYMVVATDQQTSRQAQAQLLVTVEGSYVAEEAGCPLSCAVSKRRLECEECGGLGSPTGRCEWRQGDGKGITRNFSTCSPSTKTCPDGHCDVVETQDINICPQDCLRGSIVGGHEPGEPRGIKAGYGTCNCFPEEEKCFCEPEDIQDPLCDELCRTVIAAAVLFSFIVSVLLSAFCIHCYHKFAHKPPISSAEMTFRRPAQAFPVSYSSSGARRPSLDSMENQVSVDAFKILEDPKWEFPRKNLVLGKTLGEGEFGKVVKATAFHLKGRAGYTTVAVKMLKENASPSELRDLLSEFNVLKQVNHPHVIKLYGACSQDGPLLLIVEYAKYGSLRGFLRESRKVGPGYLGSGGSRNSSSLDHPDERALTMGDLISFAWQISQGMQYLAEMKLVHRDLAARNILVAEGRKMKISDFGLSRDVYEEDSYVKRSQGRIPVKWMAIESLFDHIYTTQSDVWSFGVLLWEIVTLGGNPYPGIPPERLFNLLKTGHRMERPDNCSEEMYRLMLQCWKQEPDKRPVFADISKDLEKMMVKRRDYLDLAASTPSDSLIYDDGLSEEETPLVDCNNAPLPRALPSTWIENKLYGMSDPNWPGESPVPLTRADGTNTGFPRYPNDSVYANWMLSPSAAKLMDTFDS
# Method: as §1
# [3] = molecular target: T3, CAMK1 (Homo sapiens, UniProt Q14012);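 on 0.001 uM KAM: median log10 fold change of treatment over DMSO control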;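 on 0.01 uM KAM: median log10 fold change of treatment over DMSO control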;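 on 0.1 uM KAM: median log10 fold change of treatment over DMSO control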;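 on 1 uM KAM: median log10 fold change of treatment over DMSO control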;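 on 10 uM KAM: median log10 fold change of treatment over DMSO control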
# T3 construct: endogenous in cells; host or cells: K562
# T3 sequence (Q14012 whole entry): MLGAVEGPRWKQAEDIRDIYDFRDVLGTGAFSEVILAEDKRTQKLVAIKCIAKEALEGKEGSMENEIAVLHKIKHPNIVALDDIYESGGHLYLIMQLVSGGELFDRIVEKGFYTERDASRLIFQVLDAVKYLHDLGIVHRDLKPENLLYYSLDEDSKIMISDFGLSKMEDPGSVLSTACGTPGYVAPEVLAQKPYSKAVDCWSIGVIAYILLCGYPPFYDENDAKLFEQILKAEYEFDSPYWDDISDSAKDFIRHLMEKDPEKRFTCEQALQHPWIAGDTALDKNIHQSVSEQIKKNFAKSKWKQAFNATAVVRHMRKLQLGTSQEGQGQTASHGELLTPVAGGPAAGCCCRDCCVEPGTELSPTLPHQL
# Method: as §1
# [4] = molecular target: T4, BTK (Homo sapiens, UniProt Q06187)
# T4 construct: endogenous in cells; host or cells: K562
# T4 sequence (Q06187 whole entry): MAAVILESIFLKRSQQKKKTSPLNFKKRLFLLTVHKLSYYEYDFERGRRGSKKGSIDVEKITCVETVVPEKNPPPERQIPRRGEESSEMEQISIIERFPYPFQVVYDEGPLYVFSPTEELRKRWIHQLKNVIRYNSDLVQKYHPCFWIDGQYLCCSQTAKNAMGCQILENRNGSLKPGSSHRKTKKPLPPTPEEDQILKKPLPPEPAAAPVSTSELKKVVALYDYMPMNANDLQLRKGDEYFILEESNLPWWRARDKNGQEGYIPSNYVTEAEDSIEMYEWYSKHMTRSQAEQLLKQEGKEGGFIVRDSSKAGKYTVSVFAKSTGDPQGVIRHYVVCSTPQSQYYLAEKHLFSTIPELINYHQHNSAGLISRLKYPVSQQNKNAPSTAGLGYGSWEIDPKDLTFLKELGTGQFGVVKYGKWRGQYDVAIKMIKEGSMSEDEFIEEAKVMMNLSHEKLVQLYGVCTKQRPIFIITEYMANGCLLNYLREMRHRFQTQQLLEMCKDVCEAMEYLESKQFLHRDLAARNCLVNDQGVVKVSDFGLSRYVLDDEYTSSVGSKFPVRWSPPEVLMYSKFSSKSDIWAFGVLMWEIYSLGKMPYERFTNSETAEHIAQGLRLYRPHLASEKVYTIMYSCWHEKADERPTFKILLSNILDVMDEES
# Method: as §1
# [5] = molecular target: T5, MAP3K4 (Homo sapiens, UniProt Q9Y6R4);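 on 0.001 uM KAM: median log10 fold change of treatment over DMSO control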;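 on 0.01 uM KAM: median log10 fold change of treatment over DMSO control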;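 on 0.1 uM KAM: median log10 fold change of treatment over DMSO control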;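 on 1 uM KAM: median log10 fold change of treatment over DMSO control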;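 on 10 uM KAM: median log10 fold change of treatment over DMSO control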
# T5 construct: endogenous in cells; host or cells: K562
# T5 sequence (Q9Y6R4 whole entry): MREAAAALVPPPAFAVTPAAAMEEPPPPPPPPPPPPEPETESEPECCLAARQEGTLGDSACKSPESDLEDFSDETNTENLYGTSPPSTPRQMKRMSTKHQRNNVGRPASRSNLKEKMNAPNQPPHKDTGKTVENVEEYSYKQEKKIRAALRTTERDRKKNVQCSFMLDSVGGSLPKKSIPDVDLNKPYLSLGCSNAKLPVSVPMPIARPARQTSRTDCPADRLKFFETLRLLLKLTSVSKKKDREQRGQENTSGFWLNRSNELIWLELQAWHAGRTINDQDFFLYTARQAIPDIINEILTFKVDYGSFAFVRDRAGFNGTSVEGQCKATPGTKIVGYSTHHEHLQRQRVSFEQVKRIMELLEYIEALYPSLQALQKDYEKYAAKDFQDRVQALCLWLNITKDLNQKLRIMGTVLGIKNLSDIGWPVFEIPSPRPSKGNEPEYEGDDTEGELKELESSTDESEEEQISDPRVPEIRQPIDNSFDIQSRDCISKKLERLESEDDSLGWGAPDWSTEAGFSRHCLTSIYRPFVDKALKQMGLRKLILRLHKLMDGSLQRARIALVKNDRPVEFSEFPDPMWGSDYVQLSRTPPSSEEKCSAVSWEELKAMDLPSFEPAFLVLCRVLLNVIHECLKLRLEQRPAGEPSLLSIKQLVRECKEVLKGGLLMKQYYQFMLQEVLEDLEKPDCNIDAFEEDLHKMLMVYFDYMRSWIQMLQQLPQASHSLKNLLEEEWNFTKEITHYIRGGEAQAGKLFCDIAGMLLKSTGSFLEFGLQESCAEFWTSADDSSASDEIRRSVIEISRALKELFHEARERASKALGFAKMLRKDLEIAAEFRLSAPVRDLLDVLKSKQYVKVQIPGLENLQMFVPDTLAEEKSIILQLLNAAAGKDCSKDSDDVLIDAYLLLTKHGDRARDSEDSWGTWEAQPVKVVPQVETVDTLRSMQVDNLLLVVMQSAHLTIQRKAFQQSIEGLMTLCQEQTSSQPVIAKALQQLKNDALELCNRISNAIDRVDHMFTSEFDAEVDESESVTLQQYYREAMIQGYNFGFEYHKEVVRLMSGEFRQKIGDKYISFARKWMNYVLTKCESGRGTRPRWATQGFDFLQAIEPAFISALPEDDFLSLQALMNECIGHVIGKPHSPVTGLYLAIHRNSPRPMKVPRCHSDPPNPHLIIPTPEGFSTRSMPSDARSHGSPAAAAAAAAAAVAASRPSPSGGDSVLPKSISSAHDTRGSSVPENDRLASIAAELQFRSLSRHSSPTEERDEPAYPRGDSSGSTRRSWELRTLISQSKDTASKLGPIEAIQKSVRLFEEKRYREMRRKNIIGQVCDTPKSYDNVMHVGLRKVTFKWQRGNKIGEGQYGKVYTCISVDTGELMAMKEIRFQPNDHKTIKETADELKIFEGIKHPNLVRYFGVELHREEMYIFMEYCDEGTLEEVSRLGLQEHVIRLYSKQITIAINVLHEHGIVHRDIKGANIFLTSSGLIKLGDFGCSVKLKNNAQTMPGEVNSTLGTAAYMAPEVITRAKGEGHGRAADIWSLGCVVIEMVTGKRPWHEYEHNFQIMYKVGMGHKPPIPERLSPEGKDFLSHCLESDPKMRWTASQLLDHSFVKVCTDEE
# Method: as §1
# [6] = molecular target: T6, WNK1 (Homo sapiens, UniProt Q9H4A3);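 on 0.001 uM KAM: median log10 fold change of treatment over DMSO control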;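 on 0.01 uM KAM: median log10 fold change of treatment over DMSO control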;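 on 0.1 uM KAM: median log10 fold change of treatment over DMSO control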;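 on 1 uM KAM: median log10 fold change of treatment over DMSO control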;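 on 10 uM KAM: median log10 fold change of treatment over DMSO control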
# T6 construct: endogenous in cells; host or cells: K562
# Method: as §1
# [7] = molecular target: T7, PRKCB (Homo sapiens, UniProt P05771)
# T7 construct: endogenous in cells; host or cells: K562
# T7 sequence (P05771 whole entry): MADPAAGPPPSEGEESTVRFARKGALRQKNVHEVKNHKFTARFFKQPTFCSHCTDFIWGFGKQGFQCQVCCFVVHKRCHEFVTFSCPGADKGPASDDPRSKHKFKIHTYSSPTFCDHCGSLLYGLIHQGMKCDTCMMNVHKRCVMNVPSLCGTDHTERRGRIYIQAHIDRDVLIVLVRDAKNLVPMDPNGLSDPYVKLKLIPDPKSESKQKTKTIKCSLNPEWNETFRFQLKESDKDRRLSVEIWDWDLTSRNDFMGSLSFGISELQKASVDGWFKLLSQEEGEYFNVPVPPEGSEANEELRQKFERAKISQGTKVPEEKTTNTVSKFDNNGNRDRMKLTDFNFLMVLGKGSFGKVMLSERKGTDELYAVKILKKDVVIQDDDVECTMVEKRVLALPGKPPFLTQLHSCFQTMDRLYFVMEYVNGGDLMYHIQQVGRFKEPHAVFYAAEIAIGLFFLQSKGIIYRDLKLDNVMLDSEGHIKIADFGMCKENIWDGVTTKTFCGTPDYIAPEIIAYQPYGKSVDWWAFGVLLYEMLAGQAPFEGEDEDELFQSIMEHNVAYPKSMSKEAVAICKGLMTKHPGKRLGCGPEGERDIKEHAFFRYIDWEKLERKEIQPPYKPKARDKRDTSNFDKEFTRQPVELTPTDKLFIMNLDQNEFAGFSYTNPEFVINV
# Method: as §1
# [8] = molecular target: T8, MAP4K5 (Homo sapiens, UniProt Q9Y4K4)
# T8 construct: endogenous in cells; host or cells: K562
# Method: as §1
# [9] = molecular target: T9, PTK2B (Homo sapiens, UniProt Q14289)
# T9 construct: endogenous in cells; host or cells: K562
# Method: as §1
# [10] = molecular target: T10, TGFBR2 (Homo sapiens, UniProt P37173)
# T10 construct: endogenous in cells; host or cells: K562
# T10 sequence (P37173 23-567): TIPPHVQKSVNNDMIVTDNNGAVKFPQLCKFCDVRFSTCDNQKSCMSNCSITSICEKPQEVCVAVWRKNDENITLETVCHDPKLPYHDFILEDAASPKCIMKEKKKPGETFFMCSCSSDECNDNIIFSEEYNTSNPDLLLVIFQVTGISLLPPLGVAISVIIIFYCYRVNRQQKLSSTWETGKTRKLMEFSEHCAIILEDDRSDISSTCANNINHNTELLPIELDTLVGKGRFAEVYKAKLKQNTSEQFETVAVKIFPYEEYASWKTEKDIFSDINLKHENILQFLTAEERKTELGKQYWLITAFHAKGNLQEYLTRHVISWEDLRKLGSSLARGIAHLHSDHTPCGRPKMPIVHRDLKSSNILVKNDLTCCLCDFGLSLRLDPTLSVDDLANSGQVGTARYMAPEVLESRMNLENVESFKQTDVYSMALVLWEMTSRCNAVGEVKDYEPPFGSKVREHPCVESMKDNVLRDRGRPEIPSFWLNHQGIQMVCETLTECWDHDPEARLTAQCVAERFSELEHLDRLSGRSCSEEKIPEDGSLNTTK
# Method: as §1
# [11] = read-out: RB50 (the source's name)
# [12] = KAM 0.001-10 uM, read-out: RB50 (the source's name)
smiles,measurement,setting,value
N#CCc1ccc(Nc2nc(NCCCN)cc(Nc3cc(C4CC4)[nH]n3)n2)cc1 [KAM],median Log10 fold change,[1]; 0.001 uM KAM,-0.02718
same,median Log10 fold change,[1]; 0.01 uM KAM,-0.01436
same,median Log10 fold change,[1]; 0.1 uM KAM,-0.08414
same,median Log10 fold change,[1]; 1 uM KAM,-0.1836
same,median Log10 fold change,[1]; 10 uM KAM,-0.3705
same,IC50,[1]; [11],4180 nM
same,median Log10 fold change,[2]; 0.001 uM KAM,-0.129
same,median Log10 fold change,[2]; 0.01 uM KAM,-0.007083
same,median Log10 fold change,[2]; 0.1 uM KAM,-0.09548
same,median Log10 fold change,[2]; 1 uM KAM,-0.3474
same,median Log10 fold change,[2]; 10 uM KAM,-0.5381
same,IC50,[2]; [11],908 nM
same,IC50,[3]; [12],6470 nM
same,0.001 uM KAM,[3]; relative to 0 uM KAM = 0,-0.0406
same,0.01 uM KAM,[3]; relative to 0 uM KAM = 0,0.01937
same,0.1 uM KAM,[3]; relative to 0 uM KAM = 0,-0.06624
same,1 uM KAM,[3]; relative to 0 uM KAM = 0,-0.1636
same,10 uM KAM,[3]; relative to 0 uM KAM = 0,-0.3114
same,median Log10 fold change,[4]; 0.001 uM KAM,-0.05218
same,median Log10 fold change,[4]; 0.01 uM KAM,-0.04172
same,median Log10 fold change,[4]; 0.1 uM KAM,-0.1708
same,median Log10 fold change,[4]; 1 uM KAM,-0.3888
same,median Log10 fold change,[4]; 10 uM KAM,-0.5091
same,IC50,[4]; [11],566 nM
same,IC50,[5]; [12],> 10000 nM
same,0.001 uM KAM,[5]; relative to 0 uM KAM = 0,-0.03643
same,0.01 uM KAM,[5]; relative to 0 uM KAM = 0,-0.006572
same,0.1 uM KAM,[5]; relative to 0 uM KAM = 0,-0.06704
same,1 uM KAM,[5]; relative to 0 uM KAM = 0,-0.09539
same,10 uM KAM,[5]; relative to 0 uM KAM = 0,-0.1299
same,IC50,[6]; [12],> 10000 nM
same,0.001 uM KAM,[6]; relative to 0 uM KAM = 0,-0.03013
same,0.01 uM KAM,[6]; relative to 0 uM KAM = 0,-0.03259
same,0.1 uM KAM,[6]; relative to 0 uM KAM = 0,-0.03066
same,1 uM KAM,[6]; relative to 0 uM KAM = 0,0.00603
same,10 uM KAM,[6]; relative to 0 uM KAM = 0,-0.05865
same,median Log10 fold change,[7]; 0.001 uM KAM,-0.003193
same,median Log10 fold change,[7]; 0.01 uM KAM,-0.01706
same,median Log10 fold change,[7]; 0.1 uM KAM,-0.1711
same,median Log10 fold change,[7]; 1 uM KAM,-0.4944
same,median Log10 fold change,[7]; 10 uM KAM,-0.6051
same,IC50,[7]; [11],354 nM
same,median Log10 fold change,[8]; 0.001 uM KAM,0.009454
same,median Log10 fold change,[8]; 0.01 uM KAM,-0.01011
same,median Log10 fold change,[8]; 0.1 uM KAM,-0.2304
same,median Log10 fold change,[8]; 1 uM KAM,-0.4191
same,median Log10 fold change,[8]; 10 uM KAM,-0.5735
same,IC50,[8]; [11],332 nM
same,median Log10 fold change,[9]; 0.001 uM KAM,-0.01732
same,median Log10 fold change,[9]; 0.01 uM KAM,-0.009714
same,median Log10 fold change,[9]; 0.1 uM KAM,-0.1905
same,median Log10 fold change,[9]; 1 uM KAM,-0.4119
same,median Log10 fold change,[9]; 10 uM KAM,-0.5329
same,IC50,[9]; [11],460 nM
same,median Log10 fold change,[10]; 0.001 uM KAM,0.03003
same,median Log10 fold change,[10]; 0.01 uM KAM,-0.09645
same,median Log10 fold change,[10]; 0.1 uM KAM,-0.3569
same,median Log10 fold change,[10]; 1 uM KAM,-0.3895
same,median Log10 fold change,[10]; 10 uM KAM,-0.4032
same,IC50,[10]; [11],117 nM
